# Data: patent publication US11638719B2, “Product for obesity treatment” (YEDITEPE UNIVERSITESI, priority 2017, dated 2023)
# Columns and labels:
# Assay type in all cases: cell-based
# [1] = system: human adipose stem cells (hASCs); test: Cytotoxicity analysis, cell viability by MTS assay; conditions: NaB 20 μg/ml; for cell viability: MTS
# Method: Cytotoxicity of Pluronic® F68 and NaB were dissolved and tested at 7 different concentrations in DMEM ([…], 0.7%, 0.5%, 0.3%, 0.1%, 0.05%, 0.01% (w/v) for F68 and 5, 10, 20, 50, 100, 200 and 300 ug/ml for NaB).
# HASCs were seeded into 96-well culture plates (Corning Plasticware, Corning, N.Y., cat. no. CLS3360) at 5,000 cells/well. The next day, the cells were treated with F68 and NaB solutions that were prepared at different concentrations. In accordance with the manufacturer's instructions, cell viability was measured by the MTS assay (Promega, Southampton, UK CellTiter 96 AqueousOne solution). After 24, 48 and 72 hours of incubation, 10 ul of MTS reagent and 100 ul of DMEM medium were applied to the cells and then, after incubation at 37° C. for 2 hours, their absorbances at […] were measured with the ELISA plate reader (BioTek Instruments, Inc., Vt., USA).
# [2] = system: PPARγ, FABP4 and adiponectin gene expression in human adipose stem cells; test: RT-PCR analysis of adipogenesis-promoting gene expression after adipocyte differentiation; conditions: F68 0.05%, NaB 20 μg/ml, alone or combined; 10 days adipogenic differentiation; compared to positive control; normalized to GAPDH
# Method: (§1) The cells were seeded into 6-well culture plates at 100,000 cells/well in an adipogenic differentiation medium. Content of the medium was as follows. 10% (v/v) FBS, 1 uM dexamethasone, 100 uM indomethacin (Sigma, USA), 500 uM IBMX (Calbiochem Merck Millipore, Germany) and 0.01 mg/mL insulin (Gibco, UK). 5 different groups were prepared; only F68, only NaB, F68 and NaB combination, PC and NC. Adipogenic differentiation was applied for 10 days by changing the medium every other day. While only DMEM, 10% (v/v) FBS and 1% (v/v) PSA were applied to the negative control group, the positive control group was cultured with adipogenic differentiation medium.
# Following differentiation, RNA isolation was carried out using High Pure RNA Isolation Kit (Roche, Germany) in accordance with the manufacturer's instructions. After performance of cDNA synthesis (High Fidelity cDNA synthesis kit, Roche, Germany) from isolated RNA samples, RT-PCR was performed in three replicates using iCycler RT-PCR detection system (Bio-Rad, Hercules, Calif.). Synthesis levels were normalized to GAPDH.
# For each sample the fold changes in the expression levels were determined using the method 2 (-Delta Delta C (t)).
# [3] = system: PPARγ, FABP4 and adiponectin protein expression in human adipose stem cells; test: Immunocytochemical analysis of PPARγ, FABP4 and adiponectin proteins after adipocyte differentiation; conditions: F68 0.05%, NaB 20 μg/ml, alone or combined at the same ratios; compared to positive control
# Method: as §1
# Human adipose stem cells were seeded into 48-well plates at 8,000 cells/well. Following the differentiation experiment, the cells were fixed in 2% (w/v) paraformaldehyde at 4° C. for 30 minutes and then blocked with 2% (v/v) goat serum (Sigma, USA) for 20 minutes. The cells incubated at 4° C. overnight with PPAR-γ (ab8934, Abcam, UK, 1: 100), FABP4 (SC-30088, Santa Cruz Biotechnology, Tex., USA, 1:100) and adiponectin (ab22554, Abcam, UK, 1:50) primary antibodies were then incubated with secondary antibodies (goat anti-rabbit IgG Alexa Fluor 488, goat anti-mouse IgGAlexaFluor 488, 1:1000) at 4° C. for 2 hours. […] Immunocytochemical analysis results were observed under fluorescence microscope (NiconEclipse TE200). […]
# [4] = system: human adipose stem cells (hASCs); test: 'Oil Red O' staining of fat accumulation after adipocyte differentiation; conditions: F68 0.05%, NaB 20 μg/ml, alone or combined; 10 days adipogenic differentiation; compared to positive control
# Method: as §1
# The ‘Oil Red O’ solution was prepared by dissolving 0.5 grams of ‘Oil Red O’ (Sigma, USA) in 100 ml of isopropanol. After being fixed with 2% paraformaldehyde (weight/volume) for 30 minutes, the cells were incubated in ‘Oil Red O’ solution (diluted in PBS at 6:4) for 1 hour. The cells were observed under light microscope.
# Statistical analysis of the results was performed with the unpaired t-test and the graphs were drawn using GraphPad Prism 5 software Statistical significance was accepted as p<0.05. In addition, a graphical representation of the results obtained from immunocytochemistry and ‘Oil red O’ staining was obtained using the Adobe Creative Suite 6 program
substance,measurement,setting,value
sodium pentaborate pentahydrate [NaB],cell viability,"[1]; end of day 1, hASCs",101%
same,cell viability,"[1]; end of day 2, hASCs",106%
same,cell viability,"[1]; end of day 3, hASCs",109%
same,cytotoxicity of the dosage used,[1]; hASCs,non-cytotoxic
same,"expression levels of PPARγ, FABP4 and adiponectin genes",[2],increased significantly
same,"PPARγ, FABP4 and adiponectin protein expression levels",[3],higher than that of positive control
same,amount of fat accumulation in the cells,[4],increased the amount of fat accumulation
